Row | Compound | melting point [°C]
1 | CC(SC1COC(c2ccc(C(=O)Nc3c(F)c(F)c(C#N)c(F)c3F)cc2)OC1)C(O)(Cn1cncn1)c1ccc(F)cc1F (stereo unspecified) | 182
2 | CC(Oc1ccc(F)cc1F)(C(=O)Nc1nccs1)c1ccc(S(C)(=O)=O)cc1 (stereo unspecified) | 89 to 90
3 | OCCn1nccc1-c1ccc(Oc2ccc(F)cc2)cc1 | 71 to 72
4 | O=c1[nH]c(S)ncc1OC1CCCCO1 (stereo unspecified) | > 300
5 | Oc1ccc(CCC(CCc2ccc(O)cc2)(c2ccc(O)cc2)c2ccc(O)cc2)cc1 | 252
6 | CC1CCN(C(=O)c2ccc([C@H]3CC[C@H](NC[C@H](O)COc4ccc(O)c(NS(C)(=O)=O)c4)CC3)cc2)CC1 | 90 to 100
7 | O=C(Cc1ccc(F)cc1)c1c(O)c2cccnc2n(-c2ccccc2)c1=O | 185 to 187
8 | ClC(Cl)=CCOc1cc(Cl)c(OCc2ccc(Cl)nc2)c(Cl)c1 | 93.3
9 | COc1ccc2nc(-c3ccc4c(c3)NC(=O)C4(C)C)[nH]c2c1 | 85 to 90
10 | CN1Cc2ccccc2C(c2ccccc2)N=C1Cc1ccc(NS(C)(=O)=O)cc1 (stereo unspecified) | 182 to 185
11 | CCCCCCCCCCCCCCCCCCSCCCCCCCCCCC(N)=O | 108
12 | CCC1CCC(c2ccc(-c3cc(F)c(C(F)(F)Oc4cc(F)c(C(F)(F)F)c(F)c4)c(F)c3)c(F)c2)OC1 (stereo unspecified) | 90
13 | Cc1nc(-c2cccc(C(F)(F)F)c2)ccc1CO | 73 to 75
14 | CS(=O)(=O)NC1CCC(=O)N2CCCC(C(=O)NC(CC(=O)O)C(=O)COc3cccnc3)N2C1=O (stereo unspecified) | 120 to 125
15 | C#CCOc1cc(-c2ccc(S(C)(=O)=O)cc2)c(-c2ccc(F)cc2)c(C(F)(F)F)n1 | 138 to 139
16 | Cc1c(SCCCSCc2ccc(Cl)s2)ccnc1CSc1ccncc1 | 76 to 77
17 | COc1ccc(C2=NN(C3CCCC3)C(=O)[C@H]3CC=CC[C@@H]23)cc1O (relative stereo) | 142 to 144
18 | Cc1nc(NC(=O)Nc2ccccc2)n(C)c(=O)c1CCN1CCN(c2noc3ccccc23)CC1 | 216
19 | CC(C)c1ccc(C2c3ccc(O)cc3OC2(C)C)cc1 (stereo unspecified) | 114 to 115
20 | CCCC[C@@H](NC(=O)[C@H](Cc1ccc(O)cc1)NC(=O)OC(C)(C)C)C(=O)NCC(=O)Oc1c(Cl)c(Cl)c(Cl)c(Cl)c1Cl | 175 to 177
21 | COc1ccc(-c2c[nH]c(-c3cccnc3)n2)cc1 | 184 to 186
22 | COc1cc(C=O)ccc1OC(C)c1nc(-c2ccccc2)oc1C (stereo unspecified) | 104 to 105
23 | Cc1cc(C)cc(C(=O)N2CCC(N3CCC(C(=O)O)(c4ccccc4)CC3)CC2Cc2ccccc2)c1 (stereo unspecified) | 259
24 | CCC(=O)N[C@H]1CC[C@H](CCN2CCN(c3nccc4ccoc34)CC2)CC1 | 188
25 | COc1ccc(C2=NN(C3CCN(S(=O)(=O)N(C)C)CC3)C(=O)CC2)cc1OC | 103 to 106
26 | CC(C)(C)CNc1nc(Cl)cc(Cl)n1 | 63 to 66
27 | COc1cc(C=CC(=O)c2cc(OC)c(OC)c(OC)c2)cc(C(F)(F)F)c1O | 190 to 192

Row | Compound | melting point [°C]
28 | CCCCCCCCCCCC=C1NN=CN1N | 40 to 43
29 | CN(C)c1cc(CC(C#N)=CNc2ccccc2)cc(N(C)C)c1C(C)(C)C | 150
30 | O=C(O)CCCCCCC1=C(C=Cc2ccccc2)C(=O)CC1 | 118 to 120
31 | CC(=O)Nc1nc(CCCN2CCN(C(c3ccccc3)c3ccccc3)CC2)cs1 | 213 to 215
32 | COc1cc(CCCCCC2OCCO2)ccc1OCc1nc(-c2ccccc2)oc1C | 81 to 82
33 | CC(C)CCOC(=O)C(O)C(CC(C)C)NC(=O)C(Cc1c[nH]cn1)NC(=O)C(CC(=O)NCCc1ccccc1)Cc1cccc2ccccc12 (mixture of isomers) | 82 to 87
34 | C=C(C)CN1CCCC(C(=O)O)=Cc2cc(-c3ccc(OCCOCCCC)cc3)ccc21 | 132 to 134
35 | N#Cc1ccc(OCCCCl)cc1 | 40 to 44
36 | C[C@@H]1COC(=O)N1c1nc(-c2ccc(Br)cc2)cs1 | 189 to 190
37 | Cc1c(Cl)c(Cl)c(Cl)c(CCl)c1Cl | 88 to 89
38 | CCCCCCCCCCCCCCCCCCNC(=O)C(=O)NCCc1ccc(O)cc1 | 167
39 | O=C=NC1(N=NC2(N=C=O)CCCCC2)CCCCC1 | 38 to 40
40 | Cn1cccc1C(=O)NCCN1CCC(Nc2nc3ccccc3n2Cc2ccc(CO)o2)CC1 | 182
41 | O=C(O)c1cc(OCCOc2cccc3ccccc23)cc(OCCOc2cccc3ccccc23)c1 | 213 to 215
42 | C[C@@H]1CN(CCCn2c3ccccc3c3ccccc32)C[C@H](C)N1 | 107 to 109
43 | O=C(O)c1c(Br)nc(-c2ccccc2)n1Cc1cc2c(cc1Cl)OCO2 | 215
44 | O=[N+]([O-])c1ccc2c(c1)C(c1ccccn1)=CC(C(F)(F)F)(C(F)(F)F)O2 | 105 to 107
45 | CC(C)(C)OC(=O)[C@H]1C[C@@H](C(=O)OCc2ccccc2)[C@@H](c2ccccc2)N1 (racemic) | 70
46 | COc1ccc(C(=O)NC2CCCCC2)c2c1OCC2C(=O)OCc1ccccc1 (stereo unspecified) | 178 to 179
47 | Cc1oc(-c2ccccc2)nc1COc1ccc(C=C2SC(=O)NC2=O)cc1 | 225 to 226
48 | NS(=O)(=O)c1ccc(NC(=O)c2ccccc2SSCC(O)CO)cc1 (stereo unspecified) | > 260
49 | CC(C)CCCNC1c2ccccc2C(=O)N1c1ccc2ccc(Cl)nc2n1 (stereo unspecified) | 131
50 | CN1C(=O)N(c2ccccc2)C(=O)C1=NC(Cl)C(Cl)(Cl)Cl (stereo unspecified) | 158 to 160
51 | CCC1CC2C3CCC4=CC(=O)CCC4=C3C=CC2(C)C1O (stereo unspecified) | 139 to 141
52 | CS(=O)(=O)NC[C@@H]1CN(c2ccc(N3CCC(=CC#N)CC3)c(F)c2)C(=O)O1 | 235 to 237
53 | CC(C)c1ccccc1Sc1c(O)cc(-c2cccc(Cl)c2)oc1=O | 177 to 178

Now from value to compound:

Row | melting point [°C] | Compound
54 | 113 to 114 | CC(=O)c1ccc(OCCCN2CCC(c3noc4cc(F)ccc34)CC2)cc1C
55 | 62 to 63 | Cc1cccc(CC(=O)O)c1OCCCc1cn(-c2ccc(Br)cn2)nc1C(C)(C)C
56 | 158 to 161 | CCOC(=O)c1cc(=O)c2c(OCCOc3ccc([N+](=O)[O-])cc3)cccc2o1
57 | > 295 | CCN(CC)C(=O)C(=O)c1c[nH]c2c1ccc1c3ccccc3[nH]c12
58 | 133 to 134 | CCOCn1c(C(=O)c2ccccc2)c(CC)c(=O)[nH]c1=O
59 | 143 to 147 | CCOC(=O)C1=C(C)NC(C)=C(C(=O)OCC=CC=Cc2ccccc2)C1c1cccc([N+](=O)[O-])c1 (stereo unspecified)
60 | 260 to 264 | COc1ccccc1NC(=O)Nc1ccc(CC(=O)O)cc1C
61 | 178 to 180 | C=CCc1c(C(=O)N(C)C)cn2cc(C)nc2c1OC(=O)C(C)(C)C
62 | 108 to 110 | CCc1cc(NC(=O)N2CCN(c3ccsc3)CC2)c(OC)nc1C
63 | 93 to 94 | Clc1cc(CCCn2ccnc2)ccc1OCc1coc(-c2cccs2)n1
64 | 158 to 160 | CC(C)c1ccc(-n2nnc(-c3ccc(O)cc3)n2)cc1
65 | 167 | CCC(O)(CC(=O)OC(C)(C)C)c1cc[nH]c(=O)c1 (stereo unspecified)
66 | 245 to 248 | CCOc1cc2c(Nc3cc(OC)c(Cl)cc3Cl)c(C#N)cnc2cc1NC(C)=O
67 | 191 to 193 | CC(Br)C(=O)c1ccc2oc(=O)[nH]c2c1 (stereo unspecified)
68 | 96 to 98 | NCCn1cnc(-c2ccccc2)c1-c1ccccc1
69 | 140 | CCCC(=O)OC1c2ccccc2C(=O)N1c1ccc2ccc(Cl)nc2n1 (stereo unspecified)
70 | 89 | CCOC(=O)c1ccc2c(c1)OC(c1cc(Cl)cc(Cl)c1)(c1cc(Cl)cc(Cl)c1)O2
71 | 58 to 61 | CCOC(=O)c1ccc(NC(=O)C(C)CS)nc1 (stereo unspecified)
72 | 64 to 66 | CCCCCCCCCOc1ccc(F)c(C(N)=O)c1Cl
73 | 130 to 131 | CS(=O)(=O)NCCSc1cccc2nccn12
74 | 94 to 97 | CCOC(=O)C=Cc1ccc(Oc2c(-c3ccc(OC)cc3)ccc3cc(OC)ccc23)cc1
75 | 175 | CCc1ccc2c(c1)C=Cc1cc(C)ccc1C2c1cn(-c2ccnc(N3CCCC3C(=O)O)n2)c(=O)[nH]c1=S (stereo unspecified)

Row | melting point [°C] | Compound
76 | 121 to 122 | CCOC(=O)c1cn(-c2nnc(C)s2)cn1
77 | 178 to 184 | Cn1c(=O)c2c(ncn2CC(=O)Nc2ccc(-n3nc(C(F)(F)F)cc3C3CC3)cc2)n(C)c1=O
78 | 205 to 208 | CCC(C)c1ccc(NC(=O)c2sccc2S(=O)(=O)Nc2onc(C)c2Br)cc1 (stereo unspecified)
79 | 107 to 108 | Cc1nccc(-c2ccccc2)c1CC[C@H]1C[C@H](O)CC(=O)O1 (relative stereo)
80 | 150 to 152 | Cc1nc(-c2ccccc2)cc(-c2cccc(C#N)c2)c1NC(=O)CCN1CCOCC1
81 | 120 | CCOC(=O)N1CC(=O)NC(=O)N1Cc1ccc(Cl)cc1
82 | 205 to 206 | NC(=O)CNC(=O)c1cccc(-c2ncnc3cc(Cc4cccc(C(F)(F)F)c4)sc23)c1
83 | 140 to 142 | Nc1ccc([N+](=O)[O-])cc1OCCO
84 | 275 to 278 | Cc1cc(-c2nncc3c(C(C)(C)C)c(O)nn23)no1
85 | 39 to 41 | CCOCCc1ccc(OCCNc2ncnc(COC)c2Cl)c(C)c1
86 | 150 to 153 | NC(=O)c1ccc(OCC(O)CCCl)cc1 (stereo unspecified)
87 | 204 to 205 | COc1ccc(C(=O)Nc2ccc(C)c(NC(=O)c3cccc(N(C)C)c3)c2)cc1OC
88 | 64 to 66 | COC(=O)NCCOc1ccc(Oc2ccc(F)cc2)cc1
89 | 158 | CCS(=O)c1cc(C(=O)O)c(OC)cc1N (stereo unspecified)
90 | 59 | CCOC(=O)c1cc(F)c(SCC)nc1NCc1ccc(OC)cc1
91 | 150 to 151 | CNc1nc(C)c(C)cc1NC(=O)N1CCN(c2cc(OC)cc(OC)c2)CC1
92 | 108 to 109 | CCCCN1CCCC1CNC(=O)c1cc(Cl)cc2c1SCCN2C (stereo unspecified)
93 | 211 to 224 | CNC(=O)c1cccc(F)c1Nc1nc(Nc2ccc3c(c2)N(CCOC)C(=O)CCC3)ncc1Br
94 | 212 to 216 | NS(=O)(=O)c1ccc(CCNC(=O)CCn2cnc3c(=O)[nH]cnc32)cc1
95 | 127 to 129 | CC(=O)OC(CF)c1cccnc1S(N)(=O)=O (stereo unspecified)
96 | 57 to 58 | CCN(C)c1cccc(NC(=O)COC(C)=O)c1C#N

Reference: a melting point compilation (Tetko et al.; mined from patent text by program, amines drawn as free bases though some values may be those of a salt)
